This passage reports Ki results from patent publication US12286435B2, “Compound having benzo seven-membered ring structure, preparation method therefor, and use thereof” (BIONNA (BEIJING) MEDICAL TECHNOLOGY CO., LTD., priority 2019, dated 2025).

By Ki is commonly meant a dissociation constant, usually derived from enzyme kinetics or from competition with a known ligand.

“And” between values parts separate entries of the source, which are not always exact repeats. Equal entries are not always repeated. Where two headings read alike, the source gives them in different places. Where only a bound is given, the exact number is not on record here.

Assay [1] addresses BRD4 BD2 protein (Homo sapiens (Human), UniProt O60885). As to the kind of experiment: Fluorescence polarization binding affinity (Ki) with BRD4 BD2 protein. (In general: Fluorescence polarisation rises when a labelled molecule tumbles more slowly, as on binding a larger partner.)
Assay [2] has as its target BRD4 BD1 protein (Homo sapiens (Human), UniProt O60885). Description: Fluorescence polarization binding affinity (Ki) with BRD4 BD1 protein.
Setting [3] is: fluorescence polarization, Ki calculated from IC50.

Take `Cc1nnn2c1-c1ccc(C3=CCNCC3)cc1C(Nc1cccc(CC(=O)O)c1)CC2` (stereo not shown) [LC87, 2-(3-((1-methyl-9-(1,2,3,6-tetrahydropyridin-4-yl)-6,7-dihydro-5H-benzo[c][1,2,3]triazolo[1,5-a]azepin-7-yl)amino)phenyl) acetic acid]: the values for the Ki in assay [1] (setting [3]) and in assay [2] (setting [3]) were 142 nM and > 20000 nM, respectively.

As for `Cc1nnn2c1-c1ccc(-c3cnn(C)c3)cc1C(Nc1cccc(Cl)c1)CC2` (stereo not shown) [LC186, N-(3-chlorophenyl)-1-methyl-9-(1-methyl-1H-pyrazol-4-yl)-6,7-dihydro-5H-benzo[c][1,2,3]triazolo[1,5-a]azepin-7-amine], the Ki was 6.98 nM in assay [1] (setting [3]) and 31.3 nM in assay [2] (setting [3]).

Take `COc1ccc(NC2CCn3nnc(C)c3-c3ccc(C4=CCNCC4)cc32)cc1` (stereo not shown) [LC160, N-(4-methoxyphenyl)-1-methyl-9-(1,2,3,6-tetrahydropyridin-4-yl)-6,7-dihydro-5H-benzo[c][1,2,3]triazolo[1,5-a]azepin-7-amine 2,2,2-trifluoroacetate]: the Ki is 114 nM in assay [1] (setting [3]) and 2270 nM in assay [2] (setting [3]).

For `Cc1nnn2c1-c1ccc(C3=CCN(C4CCCCC4)CC3)cc1C(Nc1cccc(S(C)(=O)=O)c1)CC2` (stereo not shown) [BI57, 9-(1-cyclohexyl-1,2,3,6-tetrahydropyridin-4-yl)-1-methyl-N-(3-(methylsulfonyl)phenyl)-6,7-dihydro-5H-benzo[c][1,2,3]triazolo[1,5-a]azepin-7-amine 2,2,2-trifluoroacetate], the Ki was 147 nM in assay [1] (setting [3]) and 3610 nM in assay [2] (setting [3]).

For the compound `Cc1nnn2c1-c1ccc(C3CCN(C)CC3)cc1C(Nc1ccc(Cl)cc1)CC2` (stereo not shown) [BF178, N-(4-chlorophenyl)-1-methyl-9-(1-methylpiperidin-4-yl)-6,7-dihydro-5H-benzo[c][1,2,3]triazolo[1,5-a]azepin-7-amine], the Ki in assay [1] (setting [3]) and in assay [2] (setting [3]) was > 20000 nM throughout.

Take `Cc1nnn2c1-c1ccc(C3=CCN(C4CCCC4)CC3)cc1C(Nc1ccc(F)c(Cl)c1)CC2` (stereo not shown) [WYA10, N-(3-chloro-4-fluorophenyl)-9-(1-cyclopentyl-1,2,3,6-tetrahydropyridin-4-yl)-1-methyl-6,7-dihydro-5H-benzo[c][1,2,3]triazolo[1,5-a]azepin-7-amine 2,2,2-trifluoroacetate]: the Ki in assay [1] (setting [3]) was 20.7 nM and 47.4 nM; in assay [2] (setting [3]), 719 nM.

In the case of `Cc1nnn2c1-c1ccc(C3=CCNCC3)cc1C(Nc1cccc(CO)c1)CC2` (stereo not shown) [RD21, (3-((1-methyl-9-(1,2,3,6-tetrahydropyridin-4-yl)-6,7-dihydro-5H-benzo[c][1,2,3]triazolo[1,5-a]azepin-7-yl)amino)phenyl)methanol 2,2,2-trifluoroacetate], the Ki in assay [1] (setting [3]) is 90.4 nM; in assay [2] (setting [3]) it was 1530 nM.

With `Cc1nnn2c1-c1ccc(C3=CCNCC3)cc1C(Nc1ccc(F)cc1)CC2` (stereo not shown) [BJ122, N-(4-fluorophenyl)-1-methyl-9-(1,2,3,6-tetrahydropyridin-4-yl)-6,7-dihydro-5H-benzo[c][1,2,3]triazolo[1,5-a]azepin-7-amine 2,2,2-trifluoroacetate], the Ki in assay [1] (setting [3]) was 68.6 nM; in assay [2] (setting [3]), 757 nM.

Take `Cc1nnn2c1-c1ccc(C3=CCNCC3)cc1C(Nc1ccccc1CC#N)CC2` (stereo not shown) [RC82, 2-(2-((1-methyl-9-(1,2,3,6-tetrahydropyridin-4-yl)-6,7-dihydro-5H-benzo[c][1,2,3]triazolo[1,5-a]azepin-7-yl)amino)phenyl) acetonitrile 2,2,2-trifluoroacetate]: the values for the Ki in assay [1] (setting [3]) and in assay [2] (setting [3]) were 1520 nM and 2370 nM, respectively.

With `Cc1nnn2c1-c1ccc(C3=CCN(C(C)C)CC3)cc1C(Nc1cccc(Cl)c1F)CC2` (stereo not shown) [RE29, N-(3-chloro-2-fluorophenyl)-9-(1-isopropyl-1,2,3,6-tetrahydropyridin-4-yl)-1-methyl-6,7-dihydro-5H-benzo[c][1,2,3]triazolo[1,5-a]azepin-7-amine 2,2,2-trifluoroacetate], the values for the Ki in assay [1] (setting [3]) and in assay [2] (setting [3]) were 65.8 nM and 1550 nM, respectively.

On to `CCC(C)N1CC=C(c2ccc3c(c2)C(Nc2cccc(Cl)c2)CCn2nnc(C)c2-3)CC1` (stereo not shown) [BH87, 9-(1-(sec-butyl)-1,2,3,6-tetrahydropyridin-4-yl)-N-(3-chlorophenyl)-1-methyl-6,7-dihydro-5H-benzo[c][1,2,3]triazolo[1,5-a]azepin-7-amine 2,2,2-trifluoroacetate], for which the Ki was 44.5 nM in assay [1] (setting [3]) and 1100 nM in assay [2] (setting [3]).

As for `Cc1nnn2c1-c1ccc(C3=CCNCC3)cc1C(Nc1ccc(O)cc1)CC2` (stereo not shown) [LC117, 4-((1-methyl-9-(1,2,3,6-tetrahydropyridin-4-yl)-6,7-dihydro-5H-benzo[c][1,2,3]triazolo[1,5-a]azepin-7-yl)amino)phenol 2,2,2-trifluoroacetate], the Ki in assay [1] (setting [3]) is 116 nM; in assay [2] (setting [3]) it was 2370 nM.

In the case of `Cc1nnn2c1-c1ccc(C3=CCN(C4CCCC4)CC3)cc1C(Nc1cccc(Cl)c1)CC2` (stereo not shown) [BH107, N-(3-chlorophenyl)-9-(1-cyclopentyl-1,2,3,6-tetrahydropyridin-4-yl)-1-methyl-6,7-dihydro-5H-benzo[c][1,2,3]triazolo[1,5-a]azepin-7-amine 2,2,2-trifluoroacetate], the Ki in assay [1] (setting [3]) is 17.6 nM; in assay [2] (setting [3]) it was 1740 nM.

As for `Cc1nnn2c1-c1ccc(C3=CCNCC3)cc1C(Nc1ccccc1O)CC2` (stereo not shown) [LC127, 2-((1-methyl-9-(1,2,3,6-tetrahydropyridin-4-yl)-6,7-dihydro-5H-benzo[c][1,2,3]triazolo[1,5-a]azepin-7-yl)amino)phenol 2,2,2-trifluoroacetate], the Ki in assay [1] (setting [3]) is 41.5 nM; in assay [2] (setting [3]), 793 nM.

Consider `COc1cccc(NC2CCn3nnc(C)c3-c3ccc(C4=CCN(C)CC4)cc32)c1` (stereo not shown) [BH23, N-(3-methoxyphenyl)-1-methyl-9-(1-methyl-1,2,3,6-tetrahydropyridin-4-yl)-6,7-dihydro-5H-benzo[c][1,2,3]triazolo[1,5-a]azepin-7-amine 2,2,2-trifluoroacetate], for which the Ki in assay [1] (setting [3]) is 75.3 nM; in assay [2] (setting [3]) it was 751 nM.

As for `Cc1nnn2c1-c1ccc(C3=CCN(C)CC3)cc1C(Nc1ccccc1Cl)CC2` (stereo not shown) [RD06, N-(2-chlorophenyl)-1-methyl-9-(1-methyl-1,2,3,6-tetrahydropyridin-4-yl)-6,7-dihydro-5H-benzo[c][1,2,3]triazolo[1,5-a]azepin-7-amine 2,2,2-trifluoroacetate], the Ki in assay [1] (setting [3]) was 56.4 nM; in assay [2] (setting [3]), 1030 nM.

With `Cc1nnn2c1-c1ccc(C3=CCNCC3)cc1C(Nc1cccc(C#N)c1)CC2` (stereo not shown) [LC75, 3-((1-methyl-9-(1,2,3,6-tetrahydropyridin-4-yl)-6,7-dihydro-5H-benzo[c][1,2,3]triazolo[1,5-a]azepin-7-yl)amino)benzonitrile 2,2,2-trifluoroacetate], the Ki is 116 nM in assay [1] (setting [3]) and 2290 nM in assay [2] (setting [3]).

As to `Cc1nnn2c1-c1ccc(C3=CCNCC3)cc1C(Nc1ccc(CC#N)cc1)CC2` (stereo not shown) [RC73, 2-(4-((1-methyl-9-(1,2,3,6-tetrahydropyridin-4-yl)-6,7-dihydro-5H-benzo[c][1,2,3]triazolo[1,5-a]azepin-7-yl)amino)phenyl)acetonitrile 2,2,2-trifluoroacetate], the Ki in assay [1] (setting [3]) was 139 nM; in assay [2] (setting [3]) it was 2370 nM.

As for “N-(4-chlorophenyl)-9-(3,6-dihydro-2H-pyran-4-yl)-1-methyl-6,7-dihydro-5H-benzo[c][1,2,3]triazolo[1,5-a]azepin-7-amine [LD31]”, the Ki in assay [1] is 17.1 nM; in assay [2] it was 39.1 nM.

As to `Cc1nnn2c1-c1ccc(C3=CCN(C4CCC4)CC3)cc1C(Nc1cc(Cl)ccc1F)CC2` (stereo not shown) [BI26, N-(5-chloro-2-fluorophenyl)-9-(1-cyclobutyl-1,2,3,6-tetrahydropyridin-4-yl)-1-methyl-6,7-dihydro-5H-benzo[c][1,2,3]triazolo[1,5-a]azepin-7-amine 2,2,2-trifluoroacetate], the Ki in assay [1] (setting [3]) was 45.4 nM; in assay [2] (setting [3]), 861 nM.

On to `COc1ccccc1NC1CCn2nnc(C)c2-c2ccc(C3=CCNCC3)cc21` (stereo not shown) [LC158, N-(2-methoxyphenyl)-1-methyl-9-(1,2,3,6-tetrahydropyridin-4-yl)-6,7-dihydro-5H-benzo[c][1,2,3]triazolo[1,5-a]azepin-7-amine 2,2,2-trifluoroacetate], for which the Ki was 41.6 nM in assay [1] (setting [3]) and 859 nM in assay [2] (setting [3]).

For `COC(=O)c1ccccc1NC1CCn2nnc(C)c2-c2ccc(-c3cnn(C)c3)cc21` (stereo not shown) [LB160, methyl 2-((1-methyl-9-(1-methyl-1H-pyrazol-4-yl)-6,7-dihydro-5H-benzo[c][1,2,3]triazolo[1,5-a]azepin-7-yl)amino)benzoate], the Ki in assay [1] (setting [3]) was 12.5 nM; in assay [2] (setting [3]), 96.4 nM.

In the case of `Cc1nnn2c1-c1ccc(C3=CCN(C)CC3)cc1C(Oc1cccc(Cl)c1)CC2` (stereo not shown) [BH43, 7-(3-chlorophenoxy)-1-methyl-9-(1-methyl-1,2,3,6-tetrahydropyridin-4-yl)-6,7-dihydro-5H-benzo[c][1,2,3]triazolo[1,5-a]azepine 2,2,2-trifluoroacetate], the Ki is 316 nM in assay [1] (setting [3]) and > 100000 nM in assay [2] (setting [3]).

In the case of `CCC(=O)N1CC=C(c2ccc3c(c2)C(Nc2ccc(Cl)cc2)CCn2nnc(C)c2-3)CC1` (stereo not shown) [LD14, 1-(4-(7-((4-chlorophenyl)amino)-1-methyl-6,7-dihydro-5H-benzo[c][1,2,3]triazolo[1,5-a]azepin-9-yl)-3,6-dihydropyridin-1(2H)-yl)propan-1-one], the Ki was 6.14 nM in assay [1] (setting [3]) and 14.3 nM in assay [2] (setting [3]).

Turning to `Cc1nnn2c1-c1ccc(C3=CCNC3)cc1C(Nc1cccc(Cl)c1)CC2` (stereo not shown) [BJ179, N-(3-chlorophenyl)-9-(2,5-dihydro-1H-pyrrol-3-yl)-1-methyl-6,7-dihydro-5H-benzo[c][1,2,3]triazolo[1,5-a]azepin-7-amine 2,2,2-trifluoroacetate], the Ki was 25.9 nM in assay [1] (setting [3]) and 436 nM in assay [2] (setting [3]).

Regarding `Cc1nnn2c1-c1ccc(C3=CCN(C4CCCC4)CC3)cc1C(Nc1cccc(S(C)(=O)=O)c1)CC2` (stereo not shown) [BI55, 9-(1-cyclopentyl-1,2,3,6-tetrahydropyridin-4-yl)-1-methyl-N-(3-(methylsulfonyl)phenyl)-6,7-dihydro-5H-benzo[c][1,2,3]triazolo[1,5-a]azepin-7-amine 2,2,2-trifluoroacetate], the Ki in assay [1] (setting [3]) was 116 nM; in assay [2] (setting [3]), 3100 nM.
